Measurements published in patent US20190313680A1, “MODIFYING OR ENHANCING A FLAVOR OF FOOD AND BEVERAGE PRODUCTS” (Tate & Lyle Ingredients Americas LLC, priority 2016, published 2019).

Columns and labels:
[1] = in accordance with FEMA GRAS guidance; cited from earlier work
panellists [2] = experiment: Determination of the sweet-taste threshold of allulose: two-alternative forced choice test (2-AFC) against 1.5% by weight sucrose solution; type: in vivo
Description: Described herein is a method for determining the sweetness threshold of allulose. The method is a two-alternative forced choice test against threshold levels of sweetness (ASTM Designation E2164-08: Standard Test Method for Directional Difference Test). This test is used to determine the amount of allulose at which its sweetness is less than that of the recognition threshold concentration of sucrose. The recognition threshold concentration of sucrose is 1.5% by weight in accordance with FEMA (Flavor Extracts Manufacturing Association) GRAS™ guidance.
The sweet-taste threshold of allulose was determined in accordance with FEMA (Flavor Extracts Manufacturing Association) guidance. The standard process described in this guidance requires use of a two-alternative forced choice test (2-AFC testing) against threshold levels of sweetness. FEMA guidance states that the standard for this determination is a 1.5% by weight sucrose aqueous solution (i.e. the sucrose is present in an amount of 1.5% by weight relative to the total weight of the solution). AFC tests are to be performed up to the concentration where the proposed substance exceeds the sweetness levels of sucrose at threshold levels. FEMA guidance further recommends that 30 observations be made to assess the difference in sweetness and that the differences must be found to be statistically significant to assess the effect.
The number of panellists used across replicates always exceeded the minimum of 30 observations as recommended by the FEMA sensory testing guidance. As replicates were performed, beta-binomial statistics were required to be consistent with published requirements (BI, Jian. 2006. Sensory Discrimination tests and Measurements. Chapter. 6, p. 106-129, 1st ed. Blackwell Publishing, Ames, Iowa). In such tests, when the beta-binomial term A exceeds zero, the beta-binomial is required. However, if A is zero or negative, then the panel is not over-dispersed and traditional binomial statistics can be used.
Samples were prepared on the morning of testing. Reference solutions were made as a point of comparison for all tests. The reference solutions were simple solutions of 1.5% by weight sucrose (commercial Domino brand sugar) in water. Test solutions were made from Tate & Lyle Dolcia Prima® allulose syrup standardized such that the amount of allulose in the test solutions was 1.925%, 2.310%, 2.695%, 2.8875%, or 3.080% by weight relative to the total weight of the solution.
Replicated pairs of samples at a single test concentration were chosen from those above and served on a given day. Panellists were presented products in coded 2-oz soufflé cups containing approximately 1.5 oz of liquid, and asked which sample was sweeter. Products were served at room temperature. The serving order was randomized based on a complete block design, such that the order of samples was randomized among panellists and between replicates.

panellists [3] = experiment: 2-AFC flavor and preference test, salted caramel flavored water (Example 2); type: in vivo; settings: allulose in an amount below its sweetness threshold in salted caramel flavored beverage
Experimental: Salted caramel flavor samples in accordance with Table 4 below were prepared by weighing all of the ingredients into a container and blending until fully mixed.
(§1) The N&A Salted Caramel flavor was obtained from Flavor & Fragrance Specialities (product code YX-226E 032). […] DOLCIA PRIMA® was obtained from Tate & Lyle. The DOLCIA PRIMA® Allulose Syrup comprises allulose in an amount of 71% by weight on a dry solids basis. Accordingly, in the Test Sample, allulose was present at an amount of approximately 1.5% by weight relative to the total weight of the solution. The deionized water was produced by reverse osmosis.
The samples in Table 3 were subjected to 2-AFC testing.
Samples were prepared on the morning of testing. […] Standard ambient fluorescent lighting was used in sensory isolation booths, as is typical in sensory facilities. Products were served blinded and randomized in 2-oz soufflé cups identified with randomized three digit product codes.
The response questionnaires were run using Compusense Cloud. Replicates were not performed for this study. Therefore, simple binomial statistics were applied.

panelists = experiment: 2-AFC flavor and preference test, cotton candy flavored water (Example 1); type: in vivo; settings: allulose in an amount below its sweetness threshold in cotton candy flavored beverage
Experimental: Cotton candy flavor samples in accordance with Table 2 below were prepared by weighing all of the ingredients into a container and blending until fully mixed.
as §1, with “Cotton Candy” for “Salted Caramel”, “Givaudan” for “Flavor & Fragrance Specialities”, “YX-953-327-3).” for “YX-226E 032).”
The samples in Table 2 were subjected to 2-AFC testing. As already described herein, an AFC test is an alternative forced choice test. It asks a panelist to identify the sample that is most or least intense in a specified attribute among a given number of samples. A 2-AFC test chooses among 2 samples, a 3-AFC test chooses among 3 samples, etc. The attributes that are specified are generally attributes which panelists are likely to be able to recognize and identify a difference. A 2-AFC for sweetness would present panelists with two samples and ask them of the two which is sweeter. These differ from triangle tests or other types of tests in that an attribute is specified for the panelist to focus on. […]

Row | SMILES | Recognition threshold concentration [1] [% by weight] | Sweetness compared with sucrose solution (in words) (panellists [2]; 2.8875% by weight of allulose vs 1.5% by weight sucrose) | Sweetness relative to sweetness threshold (in words) (panellists [2]; 3.0800% allulose solids) | Count: number of panellists who selected the sucrose solution as sweeter (panellists [2]; allulose 1.9250 weight % in water vs 1.5% by weight sucrose, 50 possible) | Count: number of panellists who selected the sucrose solution as sweeter (panellists [2]; allulose 2.3100 weight % in water vs 1.5% by weight sucrose, 58 possible) | Count: number of panellists who selected the sucrose solution as sweeter (panellists [2]; allulose 2.6950 weight % in water vs 1.5% by weight sucrose, 60 possible) | Count: number of panellists who selected the allulose solution as sweeter (panellists [2]; allulose 2.8875 weight % in water vs 1.5% by weight sucrose, 44 possible) | Count: number of panellists who selected the allulose solution as sweeter (panellists [2]; allulose 3.0800 weight % in water vs 1.5% by weight sucrose, 60 possible) | Amount of allulose in solution considered below its sweetness threshold (panellists [2]; relative to total weight of the solution, vs 1.5% by weight sucrose) [% by weight] | Effect on preference for the beverage (in words) (panellists [3]) | Effect on salted caramel flavor (in words) (panellists [3]) | Effect on cotton candy flavor (in words) (panelists) | Effect on preference for the beverage (in words) (panelists)
1 | OC[C@H]1O[C@@](CO)(O[C@H]2O[C@H](CO)[C@@H](O)[C@H](O)[C@H]2O)[C@@H](O)[C@@H]1O [sucrose] | 1.5 |  |  |  |  |  |  |  |  |  |  |  | 
2 | O=C(CO)C(O)C(O)C(O)CO (stereo not shown) [allulose] |  | considered to be sweeter than the 1.5% by weight sucrose solution | clearly above the sweetness threshold | 45 | 49 | 40 | 26 | 34 | ≤ 2.695 | increased the preference for the beverage | enhanced the salted caramel flavor | enhanced the cotton candy flavor | increased the preference for the beverage
